# Measurements reported in the supplement of paper PMC10307832.
# Key:
# Assay in all cases: relative viability (nuclei count vs DMSO), 5 days (fraction); higher = more cells survive
# [1] = tested on: NCI-H1755
# Summary of the method: (§1)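 Nuclei were stained with Hoechst during a one-step fixation (final 0.05% Triton X-100, 1% formaldehyde, 1 ug/ml Hoechst) carried out 5 days after dosing, then counted on 4× images. The cells, lung cancer lines in 1536-well plates, had been dosed by pin tool the day after seeding with one drug alone or a fixed anchor-drug dose plus five library-drug doses (not always all listed) in √10 steps. Relative viability is the nuclei count in treated wells divided by that in vehicle wells, and each value is the median of duplicate plates.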
# [2] = tested on: LCLC-103H
# Summary of the method: as §1
# [3] = tested on: HCC-366
# Summary of the method: as §1
# [4] = tested on: NCI-H460
# Summary of the method: as §1
# [5] = tested on: HCC-827
# Summary of the method: as §1
# [6] = tested on: HOP-62
# Summary of the method: as §1
# [7] = tested on: HARA
# Summary of the method: as §1
# [8] = tested on: NCI-H23
# Summary of the method: as §1
# [9] = tested on: NCI-H522
# Summary of the method: as §1
# [10] = tested on: NCI-H1437
# Summary of the method: as §1
# [11] = tested on: NCI-H1395
# Summary of the method: as §1
# [12] = tested on: NCI-H2228
# Summary of the method: as §1
# [13] = tested on: EMC-BAC-2
# Summary of the method: as §1
# [14] = tested on: SK-LU-1
# Summary of the method: as §1
# [15] = tested on: NCI-H1792
# Summary of the method: as §1
# [16] = tested on: SW 1573
# Summary of the method: as §1
# [17] = tested on: CAL-12T
# Summary of the method: as §1
# [18] = tested on: COR-L 105
# Summary of the method: as §1
# [19] = tested on: NCI-H2009
# Summary of the method: as §1
# [20] = tested on: A-427
# Summary of the method: as §1
# [21] = tested on: NCI-H1915
# Summary of the method: as §1
smiles,measurement,setting,value
O=c1cc(-c2cccc3c2Sc2ccccc2S3)oc(N2CCOCC2)c1 + Nc1nc2[nH]cc(CCc3ccc(C(=O)N[C@@H](CCC(=O)O)C(=O)O)cc3)c2c(=O)[nH]1 [Pemetrexed] (partner 0.2 µM),relative viability,[1]; first compound 0.08 µM,0.572
same,relative viability,[1]; first compound 0.253 µM,0.398
same,relative viability,[1]; first compound 0.8 µM,0.389
same,relative viability,[1]; first compound 2.53 µM,0.574
same,relative viability,[1]; first compound 8 µM,0.366
same,relative viability,[2]; first compound 0.08 µM,0.44
same,relative viability,[2]; first compound 0.253 µM,0.467
same,relative viability,[2]; first compound 0.8 µM,0.473
same,relative viability,[2]; first compound 2.53 µM,0.423
same,relative viability,[2]; first compound 8 µM,0.438
same,relative viability,[3]; first compound 0.08 µM,0.154
same,relative viability,[3]; first compound 0.253 µM,0.193
same,relative viability,[3]; first compound 0.8 µM,0.167
same,relative viability,[3]; first compound 2.53 µM,0.154
same,relative viability,[3]; first compound 8 µM,0.155
same,relative viability,[4]; first compound 0.08 µM,0.0549
same,relative viability,[4]; first compound 0.253 µM,0.0572
same,relative viability,[4]; first compound 0.8 µM,0.0622
same,relative viability,[4]; first compound 2.53 µM,0.0639
same,relative viability,[4]; first compound 8 µM,0.0685
same,relative viability,[5]; first compound 0.08 µM,0.231
same,relative viability,[5]; first compound 0.253 µM,0.272
same,relative viability,[5]; first compound 0.8 µM,0.244
same,relative viability,[5]; first compound 2.53 µM,0.264
same,relative viability,[5]; first compound 8 µM,0.228
same,relative viability,[6]; first compound 0.08 µM,0.322
same,relative viability,[6]; first compound 0.253 µM,0.305
same,relative viability,[6]; first compound 0.8 µM,0.406
same,relative viability,[6]; first compound 2.53 µM,0.396
same,relative viability,[6]; first compound 8 µM,0.352
same,relative viability,[7]; first compound 0.08 µM,0.24
same,relative viability,[7]; first compound 0.253 µM,0.227
same,relative viability,[7]; first compound 0.8 µM,0.228
same,relative viability,[7]; first compound 2.53 µM,0.251
same,relative viability,[7]; first compound 8 µM,0.286
same,relative viability,[8]; first compound 0.08 µM,0.584
same,relative viability,[8]; first compound 0.253 µM,0.902
same,relative viability,[8]; first compound 0.8 µM,0.72
same,relative viability,[8]; first compound 2.53 µM,0.518
same,relative viability,[8]; first compound 8 µM,0.575
same,relative viability,[9]; first compound 0.08 µM,0.844
same,relative viability,[9]; first compound 0.253 µM,1.13
same,relative viability,[9]; first compound 0.8 µM,0.851
same,relative viability,[9]; first compound 2.53 µM,1.03
same,relative viability,[9]; first compound 8 µM,1.12
same,relative viability,[10]; first compound 0.08 µM,0.339
same,relative viability,[10]; first compound 0.253 µM,0.354
same,relative viability,[10]; first compound 0.8 µM,0.435
same,relative viability,[10]; first compound 2.53 µM,0.288
same,relative viability,[10]; first compound 8 µM,0.3
same,relative viability,[11]; first compound 0.08 µM,0.842
same,relative viability,[11]; first compound 0.253 µM,0.764
same,relative viability,[11]; first compound 0.8 µM,0.936
same,relative viability,[11]; first compound 2.53 µM,0.765
same,relative viability,[11]; first compound 8 µM,1.09
same,relative viability,[12]; first compound 0.08 µM,0.351
same,relative viability,[12]; first compound 0.253 µM,0.359
same,relative viability,[12]; first compound 0.8 µM,0.336
same,relative viability,[12]; first compound 2.53 µM,0.355
same,relative viability,[12]; first compound 8 µM,0.473
same,relative viability,[13]; first compound 0.08 µM,0.396
same,relative viability,[13]; first compound 0.253 µM,0.473
same,relative viability,[13]; first compound 0.8 µM,0.442
same,relative viability,[13]; first compound 2.53 µM,0.429
same,relative viability,[13]; first compound 8 µM,0.463
same,relative viability,[14]; first compound 0.08 µM,1.1
same,relative viability,[14]; first compound 0.253 µM,1.27
same,relative viability,[14]; first compound 0.8 µM,1.14
same,relative viability,[14]; first compound 2.53 µM,0.885
same,relative viability,[14]; first compound 8 µM,1.03
same,relative viability,[15]; first compound 0.08 µM,0.75
same,relative viability,[15]; first compound 0.253 µM,1.54
same,relative viability,[15]; first compound 0.8 µM,0.775
same,relative viability,[15]; first compound 2.53 µM,0.776
same,relative viability,[15]; first compound 8 µM,0.729
same,relative viability,[16]; first compound 0.08 µM,0.754
same,relative viability,[16]; first compound 0.253 µM,1.11
same,relative viability,[16]; first compound 0.8 µM,0.865
same,relative viability,[16]; first compound 2.53 µM,0.838
same,relative viability,[16]; first compound 8 µM,0.924
same,relative viability,[17]; first compound 0.08 µM,1.25
same,relative viability,[17]; first compound 0.253 µM,1.39
same,relative viability,[17]; first compound 0.8 µM,1.18
same,relative viability,[17]; first compound 2.53 µM,1.04
same,relative viability,[17]; first compound 8 µM,1.03
same,relative viability,[18]; first compound 0.08 µM,1.08
same,relative viability,[18]; first compound 0.253 µM,0.835
same,relative viability,[18]; first compound 0.8 µM,1.1
same,relative viability,[18]; first compound 2.53 µM,0.918
same,relative viability,[18]; first compound 8 µM,1.14
same,relative viability,[19]; first compound 0.08 µM,1.08
same,relative viability,[19]; first compound 0.253 µM,0.96
same,relative viability,[19]; first compound 0.8 µM,0.983
same,relative viability,[19]; first compound 2.53 µM,0.966
same,relative viability,[19]; first compound 8 µM,0.957
same,relative viability,[20]; first compound 0.08 µM,0.808
same,relative viability,[20]; first compound 0.253 µM,1
same,relative viability,[20]; first compound 0.8 µM,0.991
same,relative viability,[20]; first compound 2.53 µM,0.92
same,relative viability,[20]; first compound 8 µM,0.993
same,relative viability,[21]; first compound 0.08 µM,0.507
same,relative viability,[21]; first compound 0.253 µM,0.442
same,relative viability,[21]; first compound 0.8 µM,0.552
same,relative viability,[21]; first compound 2.53 µM,0.52
same,relative viability,[21]; first compound 8 µM,0.405
